# Assay results from article PMC4368451 (Cancer chemotherapy and pharmacology, 2015).
# Key:
# [1] = system: SW620 (colorectal adenocarcinoma) cells; experiment: Cell cycle distribution; format: cell-based; details: SW620, 24 hours
# [2] = system: A549 non-small cell lung carcinoma xenograft; experiment: A549 xenograft model; format: in vivo, Female athymic NCr-nu/nu nude mice; details: for TGI % (tumor growth inhibition): 5 mg/kg i.p. every other day for 13 days, day 23, relative to control; for tumor growth: 5 mg/kg i.p. every other day for thirteen days
# [3] = Prodrug processing in plasma or whole blood; format: in vitro ADME
# A549 tumor = format: in vivo, Female athymic NCr-nu/nu nude mice; details: 5 mg/kg i.p. on four consecutive days
Compound,cell cycle dose dependence [1],concentration for G2 arrest [1],TGI % (tumor growth inhibition) [2],TGI % (tumor growth inhibition) ([2]; listed as Larg.),tumor growth [2],prodrug level after room temperature incubation in plasma or whole blood [3],acetylated H3 and H4 in tumor lysates (western blot) relative to control (A549 tumor)
CCCCCCCC(=O)SCC/C=C/[C@@H]1CC(=O)NCc2nc(cs2)C2=N[C@@](C)(CS2)C(=O)N[C@@H](C(C)C)C(=O)O1 [Largazole],clear switch from G1 to G2 arrest with increasing concentration,> 50 nM,32%,32%,tumor growth rate was slower,< LLOQ after ten minutes,increased acetylation relative to control
Largazole thiol,–,–,–,–,tumor growth rate was slower,–,–
